Values of other authors, collected in patent US8868172B2, “Methods and systems for recommending an appropriate action to a patient for managing epilepsy and other neurological disorders” (Cyberonics, Inc., priority 2005, dated 2014).
Like-named read-outs stand apart in the source and are kept apart here.

Experiments:
[1] = not given; remark: listed apart in the source
[2] = for plasma concentration average per daily dose of 1 mg/kg: long term therapy
rat hippocampal slices = details: 10-30 μg/mL
T-type Ca^2+ currents = details: in vitro
[3] = test system: cultured mouse spinal cord neurons; details: 10-30 μg/mL
sodium channels = details: in vitro
[4] = test system: GABA/benzodiazepine receptor ionophore complex; details: allosteric, no changes in chloride flux
[5] = test system: dopaminergic and serotonergic neurotransmission; details: in vivo microdialysis
[6] = per daily dose of 1 mg/kg of the drug itself

O=C1NC(=O)C(c2ccccc2)(c2ccccc2)N1 [Phenyloin, diphenylhydantoin]
concentrations at which chronic control of seizures is generally obtained: above 10 μg/ml | concentrations at which toxic effects such as nystagmus develop [1]: around 20 μg/ml

CCC1(C)CC(=O)NC1=O (centres unmarked) [ethosuximide, Ethosuximide]
plasma concentration average per daily dose of 1 mg/kg [2, 6]: about 2 μg/ml

CCC1(c2ccccc2)C(=O)NC(=O)NC1=O [phenobarbital]
plasma concentration of phenobarbital per daily dose of 1 mg/kg of primidone ([2]; long term therapy with primidone): about 2 μg/ml | plasma concentration average per daily dose of 1 mg/kg ([2]; adults, per daily dose of 1 mg/kg): about 10 μg/ml

CCC1(c2ccccc2)C(=O)NCNC1=O [primidone, Primidone]
plasma concentration average per daily dose of 1 mg/kg [2, 6]: about 1 μg/ml

NS(=O)(=O)Cc1noc2ccccc12 [zonisamide, 1,2-benzisoxazole-3-methanesulfonamide]
effect on neuronal or glial uptake of [3H]-GABA (rat hippocampal slices): without affecting | effect on voltage-dependent, transient inward currents (T-type Ca2+ currents) (T-type Ca^2+ currents): reduces | carbonic anhydrase inhibiting activity (carbonic anhydrase): weak | effect on postsynaptic GABA or glutamate responses [3]: without affecting | effect on synaptically-driven electrical activity [3]: suppresses | effect on sodium channels (sodium channels): blocks | binding to the GABA/benzodiazepine receptor ionophore complex [4]: binds | effect on dopaminergic and serotonergic neurotransmission [5]: facilitates
